pIC50: −log10 of the molar value.
Target: T1, human LPA1 (Homo sapiens, UniProt Q92633)
T1 construct: expressed in transfected cells; host or cells: Chinese hamster ovary (CHO) cells
Assay: LPA1 functional antagonist assay (LPA-induced calcium flux)
Format: cell-based
Details: CHO cells overexpressing human LPA1; inhibition of calcium flux induced by 10 nM LPA; read-out: hLPA1 IC50
Description: The effectiveness of compounds of the present invention as LPA1 inhibitors can be determined in an LPA1 functional antagonist assay as follows: Chinese hamster ovary cells overexpressing human LPA1 were plated overnight (15,000 cells/well) in poly-D-lysine coated 384-well microplates (Greiner bio-one, Cat #781946) in DMEM/F12 medium (Gibco, Cat #11039). Following overnight culture, cells were loaded with calcium indicator dye (AAT Bioquest Inc, Cat #34601) for 30 minutes at 37° C. The cells were then equilibrated to room temperature for 30 minutes before the assay. Test compounds solubilized in DMSO were transferred to 384 well non-binding surface plates (Corning, Cat #3575) using the Labcyte Echo acoustic dispense and diluted with assay buffer [1×HBSS with calcium/magnesium (Gibco Cat #14025-092), 20 mM HEPES (Gibco Cat #15630-080) and 0.1% fatty acid free BSA (Sigma Cat #A9205)] to a final concentration of 0.5% DMSO. Diluted compounds were added to the cells by FDSS6000 (Hamamatsu) at final concentrations ranging from 0.08 nM to 5 μM. and were then incubated for 20 min at room temperature at which time LPA (Avanti Polar Lipids Cat #857130C) was added at final concentrations of 10 nM to stimulate the cells. […] IC50 values were determined by fitting data to a 4-parameter logistic equation (GraphPad Prism, San Diego Calif.).

T1 sequence (Q92633 whole entry): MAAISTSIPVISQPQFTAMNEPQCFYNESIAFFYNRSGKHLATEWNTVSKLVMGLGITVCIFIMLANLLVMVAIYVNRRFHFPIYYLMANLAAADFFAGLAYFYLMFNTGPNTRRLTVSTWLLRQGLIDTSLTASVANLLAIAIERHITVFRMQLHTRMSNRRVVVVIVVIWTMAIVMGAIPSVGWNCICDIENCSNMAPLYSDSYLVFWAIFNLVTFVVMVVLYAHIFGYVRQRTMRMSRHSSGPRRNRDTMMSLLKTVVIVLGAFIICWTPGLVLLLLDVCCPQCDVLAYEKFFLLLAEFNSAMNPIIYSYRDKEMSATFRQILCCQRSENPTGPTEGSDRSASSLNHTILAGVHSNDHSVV

| SMILES | pIC50 |
| --- | --- |
| Cc1nc(-c2nnn(C)c2COC(=O)N(C)CC2CCC2)ccc1O[C@H]1CCC[C@](F)(C(=O)O)C1 (single isomer, unassigned) [Example 13, 3-((6-(5-((((cyclobutylmethyl)(methyl)carbamoyl)oxy)methyl)-1-methyl-1H-1,2,3-triazol-4-yl)-2-methylpyridin-3-yl)oxy)-1-fluorocyclohexane-1-carboxylic Acid] | 7.02 |

Same assay, conditions: read-out: hLPA1 IC50

| SMILES | pIC50 |
| --- | --- |
| CN(CCC1CC1)C(=O)OCc1c(-c2ccc(O[C@H]3CCC[C@H](C(=O)O)C3)cc2)nnn1C (racemic) [Example 55, (rac)-trans-3-(4-(5-((((2-cyclopropylethyl)(methyl)carbamoyl)oxy)methyl)-1-methyl-1H-1,2,3-triazol-4-yl)phenoxy)cyclohexane-1-carboxylic acid] | 7.39 |
| CCCCCN(C)C(=O)OCc1c(-c2ccc(O[C@H]3CCC[C@H](C(=O)O)C3)cc2)nnn1C (racemic) [Example 58, (rac)-trans-3-(4-(1-methyl-5-(((methyl(pentyl)carbamoyl)oxy)methyl)-1H-1,2,3-triazol-4-yl)phenoxy)cyclohexane-1-carboxylic acid] | 6.60 |
| CCCN(C)C(=O)OCc1c(-c2ccc(O[C@H]3CCC[C@H](C(=O)O)C3)cc2)nnn1C (racemic) [Example 59, (rac)-trans-3-(4-(1-methyl-5-(((methyl(propyl)carbamoyl)oxy)methyl)-1H-1,2,3-triazol-4-yl)phenoxy)cyclohexane-1-carboxylic acid] | 5.73 |
| CN(Cc1ccccc1)C(=O)OCc1c(-c2ccc(O[C@H]3CCC[C@H](C(=O)O)C3)cc2)nnn1C (racemic) [Example 60, (rac)-trans-3-(4-(5-(((benzyl(methyl)carbamoyl)oxy)methyl)-1-methyl-1H-1,2,3-triazol-4-yl)phenoxy)cyclohexane-1-carboxylic acid] | 6.89 |
| CN(CC1CC1)C(=O)OCc1c(-c2ccc(O[C@H]3CCC[C@H](C(=O)O)C3)cc2)nnn1C (racemic) [Example 61, (rac)-trans-3-(4-(5-((((cyclopropylmethyl)(methyl)carbamoyl)oxy)methyl)-1-methyl-1H-1,2,3-triazol-4-yl)phenoxy)cyclohexane-1-carboxylic acid] | 6.56 |
| CC(C1CCC1)N(C)C(=O)OCc1c(-c2ccc(O[C@H]3CCC[C@H](C(=O)O)C3)cc2)nnn1C (single isomer, unassigned) [Example 67, trans-3-(4-(5-((((1-cyclobutylethyl)(methyl)carbamoyl)oxy)methyl)-1-methyl-1H-1,2,3-triazol-4-yl)phenoxy)cyclohexane-1-carboxylic acid] | 6.96 |
| Cc1nc(-c2nnn(C)c2COC(=O)N(C)C2(C)CC(C)C2)ccc1O[C@H]1CCC[C@H](C(=O)O)C1 (single isomer, unassigned) [Example 106] | 7.17 |

Second part, the compound after the results:

| pIC50 | SMILES |
| --- | --- |
| 7.49 | CCCCN(C)C(=O)OCc1c(-c2ccc(O[C@H]3CCC[C@H](C(=O)O)C3)cc2)nnn1C (racemic) [Example 64, (rac)-trans-3-(4-(5-(((butyl(methyl)carbamoyl)oxy)methyl)-1-methyl-1H-1,2,3-triazol-4-yl)phenoxy)cyclohexane-1-carboxylic acid] |
| 7.49 | Cc1nc(-c2nnn(C)c2COC(=O)N(C)C2CCCC2)ccc1O[C@H]1CCC[C@](F)(C(=O)O)C1 (racemic) [Example 88] |
| 7.49 | CN(C(=O)OCc1c(-c2ccc(O[C@H]3CCC[C@](F)(C(=O)O)C3)cn2)nnn1C)C1CCCC1 (racemic) [Example 89] |
| 7.85 | CN(CC1CCC1)C(=O)OCc1c(-c2ccc(O[C@H]3CCC[C@](F)(C(=O)O)C3)cn2)nnn1C (racemic) [Example 90] |
| 8.10 | CC(C1CCC1)N(C)C(=O)OCc1c(-c2ccc(O[C@H]3CCC[C@H](C(=O)O)C3)cc2)nnn1C (single isomer, unassigned) [Example 48] |
| 7.85 | CC(C1CCC1)N(C)C(=O)OCc1c(-c2ccc(O[C@H]3CCC[C@H](C(=O)O)C3)cc2)nnn1C (single isomer, unassigned) [Example 49] |

Source: patent publication US10576062B2, “Carbamoyloxymethyl triazole cyclohexyl acids as LPA antagonists” (Bristol-Myers Squibb Company, priority 2016, dated 2020)
